Patent US20110207793A1, “1-AMINOCYCLOHEXANE DERIVATIVES FOR THE TREATMENT OF SLEEP DISORDERS” (priority 2008, published 2011)

How the values were obtained:
[1] = tested on: subjects with subjective tinnitus of at least moderate severity; experiment: Double-blind placebo-controlled pilot trial of neramexane in tinnitus: question 12/5 (sleep item) of the structured tinnitus interview; assay type: in vivo, human; conditions: for TI Sleep item 12/5: Prevented (%) / TI Sleep item 12/5: Prevented n / TI Sleep item 12/5: affected (%) / TI Sleep item 12/5: affected n / TI Sleep item 12/5: no effect (%) / TI Sleep item 12/5: no effect n: ITT-OC
Protocol: (§1) The objective of this pilot project was to conduct a clinical trial to assess the efficacy of neramexane as a treatment for tinnitus. The primary objective of this study was to compare the efficacy, tolerability and safety of neramexane mesylate at three different dosages (25, 50 or 75 mg/d) with placebo in subjects with subjective tinnitus of at least moderate severity.
(§2) In a double-blind, multicenter, randomized, placebo-controlled, parallel-group study, the efficacy of neramexane in subjects suffering from tinnitus of at least moderate severity was assessed. Approximately 100 patients, who fulfilled particular inclusion criteria and met none of particular exclusion criteria, were randomized to each of four double-blind treatment groups (neramexane mesylate 25, 50, 75 mg/d or placebo), resulting in approximately 400 patients in total.
The double-blind, 16-week treatment period consisted of a 4-week uptitration period and a 12-week fixed-dose treatment period at unchanged maintenance b.i.d. dosing. In case of poor tolerability, however, the investigator could consider a dose reduction by 25 mg/d (or placebo, respectively). After the treatment phase, there was a 4-week follow-up period with no active treatment and concomitant therapy restrictions. In total, this study involved seven study visits: screening, baseline, and at the end of weeks 4, 8, 12, 16, and 20.
Visit 2 (baseline): The subject was asked about adverse events and changes in concomitant medication/disease, which events/changes were documented. The subject was evaluated for study eligibility based on a review of the inclusion/exclusion criteria. Trial procedures as well as allowed and forbidden concomitant medications were reviewed with the subject. An initial Tinnitus Interview was conducted. The subject also completed a TBF-12, HADS-D Questionnaire and GÜF Questionnaire (if applicable). The subject was enrolled in the study and study medication (placebo or neramexane) was dispensed as described below.
Visit 6 (Week 16, end of treatment). This visit occurred at the end of the 12-week fixed-dose double-blind treatment period. The subject was asked about adverse events and changes in concomitant medication/disease, which changes are documented. A clinical laboratory evaluation was performed. A follow-up Tinnitus Interview was conducted, and the subject completed a TBF-12, HADS-D Questionnaire and GÜF Questionnaire (if applicable). Pure-tone audiometry (air conduction) was also conducted.
Visit 7 (Week 20): This visit occurred at the end of the 4-week follow-up period after the last study medication dose. Review of concomitant medications as well as the occurrence of adverse events since the last visit is conducted with subject. A follow-up Tinnitus Interview was conducted, and the subject completed a TBF-12, HADS-D Questionnaire and GÜF Questionnaire (if applicable).
Neramexane mesylate immediate release tablets (12.5 mg and 25 mg) and matching placebo tablets were administered as film coated tablets.
Study medication was dispensed at Visit 2 (baseline, day, 0). Each patient received one blister box containing 5 blister cards (including one reserve blister) of double-blind study medication (i.e., 32 tablets). Subjects were instructed to take 2 tablets twice daily (4 tablets/d), beginning the day after dispensing of the study medication, until they returned for their next study visit (Visit 3). For those subjects assigned to receive active medication, some placebo tablets were incorporated into the dosing regimen to ensure blinding during the uptitration period. The target fixed-maintenance dose of 25, 50, or 75 mg neramexane mesylate/d was administered starting with the fifth week of double-blind treatment and was continued throughout the study. […]

[2] = molecular target: alpha9/alpha10 nicotinic receptor (Rattus norvegicus, UniProt P43144+Q9JLB5); conditions: Plazas, et al., Eur J Pharmacol., 2007; cited from earlier work
Chain of alpha9/alpha10 nicotinic receptor (P43144 26-479): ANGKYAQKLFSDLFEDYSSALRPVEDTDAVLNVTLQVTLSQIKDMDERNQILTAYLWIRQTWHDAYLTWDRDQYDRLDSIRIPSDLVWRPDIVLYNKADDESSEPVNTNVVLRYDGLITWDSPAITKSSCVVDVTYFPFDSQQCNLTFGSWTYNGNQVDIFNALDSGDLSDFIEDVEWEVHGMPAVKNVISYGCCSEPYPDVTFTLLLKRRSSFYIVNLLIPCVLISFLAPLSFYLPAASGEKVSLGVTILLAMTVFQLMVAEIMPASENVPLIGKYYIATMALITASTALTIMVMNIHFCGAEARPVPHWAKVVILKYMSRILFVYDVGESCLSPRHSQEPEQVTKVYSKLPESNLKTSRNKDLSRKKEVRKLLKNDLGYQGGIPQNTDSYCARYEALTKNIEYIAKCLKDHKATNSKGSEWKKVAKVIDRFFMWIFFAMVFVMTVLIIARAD
Chain of alpha9/alpha10 nicotinic receptor (Q9JLB5 25-447): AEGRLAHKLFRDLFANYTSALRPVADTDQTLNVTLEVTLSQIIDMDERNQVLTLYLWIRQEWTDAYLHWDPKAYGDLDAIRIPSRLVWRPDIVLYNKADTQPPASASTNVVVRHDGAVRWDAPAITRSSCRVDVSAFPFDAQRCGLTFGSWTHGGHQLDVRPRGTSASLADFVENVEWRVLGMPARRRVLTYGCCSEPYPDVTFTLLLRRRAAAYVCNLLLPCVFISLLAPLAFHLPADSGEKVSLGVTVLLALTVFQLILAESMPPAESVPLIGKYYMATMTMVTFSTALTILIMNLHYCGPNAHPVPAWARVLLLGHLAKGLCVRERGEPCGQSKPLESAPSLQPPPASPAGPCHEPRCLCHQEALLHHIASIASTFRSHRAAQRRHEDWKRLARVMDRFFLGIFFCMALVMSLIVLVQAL

[3] = tested on: subjects with subjective tinnitus of at least moderate severity; experiment: Double-blind placebo-controlled pilot trial of neramexane in tinnitus: TBF-12; assay type: in vivo, human; conditions: final daily doses of 50 or 75 mg, after 16-week double-blind treatment (Visit 6); distinct from placebo or low-dose (25 mg)
Protocol: as §1, §2
The double-blind, 16-week treatment period consisted of a 4-week uptitration period and a 12-week fixed-dose treatment period at unchanged maintenance b.i.d. dosing. In case of poor tolerability, however, the investigator could consider a dose reduction by 25 mg/d (or placebo, respectively). […]
Visit 1 (screening): After signing the consent form, the subject underwent a physical examination and clinical laboratory testing. Patient eligibility for the study was evaluated via a check of inclusion/exclusion criteria. […]

[4] = Follow-Up (Change from Baseline), 25 mg/d, N = 100
[5] = Follow-Up (Change from Baseline), 50 mg/d, N = 95
[6] = Follow-Up (Change from Baseline), 75 mg/d, N = 89
[7] = Week 16 Visit (Change from Baseline), 25 mg/d, N = 89
[8] = Week 16 Visit (Change from Baseline), 50 mg/d, N = 80
[9] = Week 16 Visit (Change from Baseline), 75 mg/d, N = 64

SMILES: CC1(C)CC(C)(C)CC(C)(N)C1 [Neramexane, 1-amino-1,3,3,5,5-pentamethylcyclohexane]
- TI Sleep item 12/5: Prevented (%) ([1]; Baseline, 25 mg/d, N = 106): 12.3%
- TI Sleep item 12/5: Prevented n ([1]; Baseline, 25 mg/d, N = 106): 13
- TI Sleep item 12/5: affected (%) ([1]; Baseline, 25 mg/d, N = 106): 64.2%
- TI Sleep item 12/5: affected n ([1]; Baseline, 25 mg/d, N = 106): 68
- TI Sleep item 12/5: no effect (%) ([1]; Baseline, 25 mg/d, N = 106): 23.6%
- TI Sleep item 12/5: no effect n ([1]; Baseline, 25 mg/d, N = 106): 25
- TI Sleep item 12/5: Prevented (%) ([1]; Baseline, 50 mg/d, N = 106): 6.6%
- TI Sleep item 12/5: Prevented n ([1]; Baseline, 50 mg/d, N = 106): 7
- TI Sleep item 12/5: affected (%) ([1]; Baseline, 50 mg/d, N = 106): 66.0%
- TI Sleep item 12/5: affected n ([1]; Baseline, 50 mg/d, N = 106): 70
- TI Sleep item 12/5: no effect (%) ([1]; Baseline, 50 mg/d, N = 106): 27.4%
- TI Sleep item 12/5: no effect n ([1]; Baseline, 50 mg/d, N = 106): 29
- TI Sleep item 12/5: Prevented (%) ([1]; Baseline, 75 mg/d, N = 99): 8.1%
- TI Sleep item 12/5: Prevented n ([1]; Baseline, 75 mg/d, N = 99): 8
- TI Sleep item 12/5: affected (%) ([1]; Baseline, 75 mg/d, N = 99): 68.7%
- TI Sleep item 12/5: affected n ([1]; Baseline, 75 mg/d, N = 99): 68
- TI Sleep item 12/5: no effect (%) ([1]; Baseline, 75 mg/d, N = 99): 23.2%
- TI Sleep item 12/5: no effect n ([1]; Baseline, 75 mg/d, N = 99): 23
- TI Sleep item 12/5: Prevented (%) [1, 4]: 3.0%
- TI Sleep item 12/5: Prevented n [1, 4]: 3
- TI Sleep item 12/5: affected (%) [1, 4]: 65.0%
- TI Sleep item 12/5: affected n [1, 4]: 65
- TI Sleep item 12/5: no effect (%) [1, 4]: 32.0%
- TI Sleep item 12/5: no effect n [1, 4]: 32
- TI Sleep item 12/5: Prevented (%) [1, 5]: 1.1%
- TI Sleep item 12/5: Prevented n [1, 5]: 1
- TI Sleep item 12/5: affected (%) [1, 5]: 57.9%
- TI Sleep item 12/5: affected n [1, 5]: 55
- TI Sleep item 12/5: no effect (%) [1, 5]: 41.1%
- TI Sleep item 12/5: no effect n [1, 5]: 39
- TI Sleep item 12/5: Prevented (%) [1, 6]: 3.4%
- TI Sleep item 12/5: Prevented n [1, 6]: 3
- TI Sleep item 12/5: affected (%) [1, 6]: 57.3%
- TI Sleep item 12/5: affected n [1, 6]: 51
- TI Sleep item 12/5: no effect (%) [1, 6]: 39.3%
- TI Sleep item 12/5: no effect n [1, 6]: 35
- TI Sleep item 12/5: Prevented (%) [1, 7]: 2.2%
- TI Sleep item 12/5: Prevented n [1, 7]: 2
- TI Sleep item 12/5: affected (%) [1, 7]: 65.2%
- TI Sleep item 12/5: affected n [1, 7]: 58
- TI Sleep item 12/5: no effect (%) [1, 7]: 32.6%
- TI Sleep item 12/5: no effect n [1, 7]: 29
- TI Sleep item 12/5: Prevented (%) [1, 8]: 1.3%
- TI Sleep item 12/5: Prevented n [1, 8]: 1
- TI Sleep item 12/5: affected (%) [1, 8]: 48.8%
- TI Sleep item 12/5: affected n [1, 8]: 39
- TI Sleep item 12/5: no effect (%) [1, 8]: 50.0%
- TI Sleep item 12/5: no effect n [1, 8]: 40
- TI Sleep item 12/5: Prevented (%) [1, 9]: 6.3%
- TI Sleep item 12/5: Prevented n [1, 9]: 4
- TI Sleep item 12/5: affected (%) [1, 9]: 50.0%
- TI Sleep item 12/5: affected n [1, 9]: 32
- TI Sleep item 12/5: no effect (%) [1, 9]: 43.8%
- TI Sleep item 12/5: no effect n [1, 9]: 28
- improvement of sleep, question 12/5 of the structured tinnitus interview ([1]; final daily doses of 50 or 75 mg, after 16 weeks of double-blind treatment, distinct from placebo or low-dose (25 mg)): clear improvement of their sleep
- activity at alpha9/alpha10 nicotinic receptor [2]: activity as an alpha9/alpha10 nicotinic receptor antagonist
- improvement of tinnitus as measured by the TBF-12 [3]: clear improvement of their tinnitus
